# According to patent publication US20230012368A1 (Hoffmann-La Roche Inc., priority 2018, published 2023):
# Structures can show the parent of a compound that is named as a salt.
# Tested on: Acinetobacter baumannii ATCC 17978
# Assay: Antimicrobial susceptibility testing: 90% growth inhibitory concentration (IC90) determination
# Assay type: cell-based
# Conditions: 90% growth inhibitory concentration; Acinetobacter baumannii ATCC17978; Iso-Sensitest broth, OD 600 nm over 16h; read-out: ATCC17978 IC90
# How it was run: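 Growth of the Acinetobacter baumannii strain was followed by optical density at 600 nm every 20 minutes for 16h at 35±2° C. Inoculum was ~5×10^(5) CFU/ml in Iso-Sensitest medium, with twofold compound dilutions (e.g. 50 to 0.097 μM final). The 90% inhibitory concentration was derived in log-phase growth.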
row,SMILES,IC90 [nM]
1,"CCc1cc(Nc2nccn3c(-c4ccc(OC)c(F)c4F)cnc23)ccc1C(=O)N[C@@H](CN)c1ccccc1 [Example 321, N-[(1R)-2-amino-1-phenylethyl]-4-[[3-(2,3-difluoro-4-methoxyphenyl)imidazo[1,2-a]pyrazin-8-yl]amino]-2-ethylbenzamide; hydrochloride]",4000
2,"COc1ccc(-c2cnc3c(Nc4ccc(C(=O)N(C)CC(=O)N5CCNCC5)c(C)c4)nccn23)cc1F [Example 5, hydrochloride]",650

# Same assay, conditions: Acinetobacter baumannii, ATCC17978, 16 h, 90% growth inhibitory concentration; Acinetobacter baumannii ATCC17978; Iso-Sensitest broth, OD 600 nm over 16h; read-out: ATCC17978 IC90
row,SMILES,IC90 [nM]
1,"COc1ccc(-c2cnc3c(Nc4ccc(C(=O)N(C)CCO)cc4)nccn23)cc1 [Example 235, N-(2-hydroxyethyl)-4-[[3-(4-methoxyphenyl)imidazo[1,2-a]pyrazin-8-yl]amino]-N-methylbenzamide]",1000
2,"CCc1cc(Nc2nccn3c(-c4ccc(Cl)cc4Cl)cnc23)ccc1C(=O)NCCNC(=O)[C@H](N)CCCNC(=N)N [Example 351, N-[2-[[(2R)-2-amino-5-carbamimidamidopentanoyl]amino]ethyl]-4-[[3-(2,4-dichlorophenyl)imidazo[1,2-a]pyrazin-8-yl]amino]-2-ethylbenzamide;formic acid]",1300
3,"COc1ccc(-c2cnc3c(Nc4ccc(C(=O)N(C)CCCN5CCNCC5)c(C)c4)nccn23)cc1F [Example 275, 4-[[3-(3-fluoro-4-methoxyphenyl)imidazo[1,2-a]pyrazin-8-yl]amino]-N,2-dimethyl-N-(3-piperazin-1-ylpropyl)benzamide]",350
4,"CCc1cc(Nc2nccn3c(-c4ccc(OC)c(F)c4F)cnc23)ccc1C(=O)N[C@@H](C)CNC(=O)[C@@H](N)CCCCN [Example 453, N-[(1S)-2-[[(2S)-2,6-diaminohexanoyl]amino]-1-methyl-ethyl]-4-[[3-(2,3-difluoro-4-methoxy-phenyl)imidazo[1,2-a]pyrazin-8-yl]amino]-2-ethyl-benzamide]",320
5,"CCc1cc(Nc2nccn3c(-c4ccc(OCc5cc[nH]n5)c(F)c4F)cnc23)ccc1C(=O)N[C@@H](C)CN (racemic) [Example 485, rac-(R)-4-((3-(4-((1H-pyrazol-3-yl)methoxy)-2,3-difluorophenyl)imidazo[1,2-a]pyrazin-8-yl)amino)-N-(1-aminopropan-2-yl)-2-ethylbenzamide]",800
6,"Cc1cc(Nc2nccn3c(-c4ccc(OC(F)F)cc4)cnc23)ccc1C(=O)NC[C@H](C)N [Example 254, N-[(2S)-2-aminopropyl]-4-[[3-[4-(difluoromethoxy)phenyl]im-dazo[1,2-a]pyrazin-8-yl]amino]-2-methylbenzamide; hydrochlo-ride]",3300
7,"CNC(=O)c1ccc(Nc2nccn3c(-c4ccc(OC(F)F)cc4)cnc23)cc1[N+](=O)[O-] [Example 54, 4-((3-(4-(difluoromethoxy)phenyl)imidazo[1,2-a]pyrazin-8-yl)amino)-N-methyl-2-nitrobenzamide]",820
8,"COc1ccc(-c2cnc3c(Nc4ccc(C(=O)N(C)CCO)c(C)c4)nccn23)cc1 [Example 19, N-(2-hydroxyethyl)-4-((3-(4-methoxyphenyl)imidazo [1,2-a]pyrazin-8-yl)amino)-N,2-dimethylbenzamide]",690
9,"COc1ccc(-c2cnc3c(Nc4ccc(C(=O)NCCCN5CCNC(=O)C5)c(C)c4)nccn23)c(F)c1F [Example 65, 4-((3-(2,3-difluoro-4-methoxyphenyl)imidazo [1,2-a]pyrazin-8-yl)amino)-2-methyl-N-(3-(3-oxopiperazin-1-yl)propyl)benzamide]",120
10,"N#CCOc1ccc(-c2cnc3c(Nc4ccc(C(=O)NCCCN5CCNCC5)c(Cl)c4)nccn23)c(F)c1F [Example 77, 2-chloro-4-((3-(4-(cyanomethoxy)-2,3-difluorophenyl)imidazo [1,2-a]pyrazin-8-yl)amino)-N-(3-(piperazin-1-yl)propyl)benzamide]",100

# Continued, values first:
row,IC90 [nM],SMILES
1,980,"CCc1cc(Nc2nccn3c(-c4ccc(Cl)cc4Cl)cnc23)ccc1C(=O)NCCNC(=O)[C@@H](N)CCCNC(=N)N [Example 346, N-[2-[[(2S)-2-amino-5-carbamimidamidopentanoyl]amino]ethyl]-4-[[3-(2,4-dichlorophenyl)imidazo[1,2-a]pyrazin-8-yl]amino]-2-ethylbenzamide;hydrochloride]"
2,170,CNC(=O)c1ccc(Nc2nccn3c(-c4ccc(OC(F)F)cc4)cnc23)cc1C [Example 26]
3,1100,"Cc1cc(Nc2nccn3c(-c4ccc(Cl)c(F)c4F)cnc23)ccc1C(=O)NCC1CCN(C)CC1 [Example 240, 4-[[3-(4-chloro-2,3-difluorophenyl)imidazo[1,2-a]pyrazin-8-yl]amino]-2-methyl-N-[(1-methylpiperidin-4-yl)methyl]benzamide]"
4,250,"CCc1cc(Nc2nccn3c(-c4ccc(OC)c(F)c4Cl)cnc23)ccc1C(=O)NCCNC(=O)[C@H](N)CCCNC(=N)N [Example 129, N-[2-[[(2R)-2-amino-5-guanidino-pentanoyl]amino]ethyl]-4-[[3-(2-chloro-3-fluoro-4-methoxy-phenyl)imidazo[1,2-a]pyrazin-8-yl]amino]-2-ethyl-benzamide formate]"
5,270,"COc1ccc(-c2cnc3c(Nc4ccc(C(=O)N[C@@H](C)CN)c(Cl)c4)nccn23)c(F)c1F [Example 505, #N!-[(2#S!)-1-aminopropan-2-yl]-2-chloro-4-[[3-(2,3-difluoro-4-methoxyphenyl)imidazo[1,2-a]pyrazin-8-yl]amino]benzamide;dihydro-chloride]"
6,7100,"Cc1cc(Nc2nccn3c(-c4ccc(OC(F)F)cc4)cnc23)ccc1C(=O)N[C@@H](C)CN [Example 269, N-[(2S)-1-aminopropan-2-yl]-4-[[3-[4-(difluoromethoxy)phenyl]im-idazo[1,2-a]pyrazin-8-yl]amino]-2-methylbenzamide;hydrochlo-ride]"
7,340,"COc1ccc(-c2cnc3c(Nc4ccc(C(=O)NCCCN)c(CCF)c4)nccn23)c(F)c1F [Example 392, N-(3-aminopropyl)-4-[[3-(2,3-difluoro-4-methoxy-phenyl)imidazo[1,2-a]pyrazin-8-yl]amino]-2-(2-fluoroethyl)benzamide]"
8,260,"Cc1cc(Nc2nccn3c(-c4ccc(Cl)cc4)cnc23)ccc1C(=O)NCCC1CCN(C)CC1 [Example 186, 4-[[3-(4-chlorophenyl)imidazo[1,2-a]pyrazin-8-yl]amino]-2-methyl-N-[2-(1-methylpiperidin-4-yl)ethyl]benzamide]"
9,3600,"Cc1cc(Nc2nccn3c(-c4ccc(Cl)c(F)c4F)cnc23)ccc1C(=O)N[C@@H](C)CN [Example 258, N-[(2S)-1-aminopropan-2-yl]-4-[[3-(4-chloro-2,3-difluorophenyl)imidazo[1,2-a]pyrazin-8-yl]amino]-2-methylbenzamide;hydrochlo-ride]"
10,720,"CCc1cc(Nc2nccn3c(-c4ccc(Oc5nccc(C)n5)c(F)c4F)cnc23)ccc1C(=O)N[C@@H](C)CNC(=O)[C@@H](N)CCNC(=N)N [Example 455, N-((S)-1-((S)-2-amino-4-guanidinobutanamido)propan-2-yl)-4-((3-(2,3-difluoro-4-((4-methylpyrimidin-2-yl)oxy)phenyl)imidazo[1,2-a]pyrazin-8-yl)amino)-2-ethylbenzamide formiate 1:2]"
11,500,"COc1ccc(-c2cnc3c(Nc4ccc(C(=O)NC[C@H](N)CNC(=O)[C@@H]5C[C@@H](O)CN5)c(C)c4)nccn23)c(F)c1F [Example 469, (2S,4R)-N-[(2S)-2-amino-3-[[4-[[3-(2,3-difluoro-4-methoxy-phenyl)imidazo[1,2-a]pyrazin-8-yl]amino]-2-methyl-benzoyl]amino]propyl]-4-hydroxy-pyrrolidine-2-carboxamide; formic acid]"
12,1300,"COc1ccc(-c2cnc3c(Nc4ccc(C(=O)NCCCN5CCNC(C(=O)O)C5)c(Cl)c4)nccn23)c(F)c1F (centres unmarked) [Example 314, 4-[3-[[2-chloro-4-[[3-(2,3-difluoro-4-methoxyphenyl)imidazo[1,2-a]pyrazin-8-yl]amino]benzoyl]amino]pro-pyl]piperazine-2-carboxylic acid;formic acid]"
13,270,"COc1ccc(-c2cnc3c(Nc4ccc(C(=O)NCCCCN5CCOCC5)c(C)c4)nccn23)cc1F [Example 187, 4-[[3-(3-fluoro-4-methoxyphenyl)imidazo[1,2-a]pyrazin-8-yl]amino]-2-methyl-N-(4-morpholin-4-ylbutyl)benzamide]"
14,380,"Cc1cc(Nc2nccn3c(-c4ccc(OC(F)F)cc4)cnc23)ccc1C(=O)NCCC1CCNCC1 [Example 196, 4-[[3-[4-(difluoromethoxy)phenyl]im-idazo[1,2-a]pyrazin-8-yl]amino]-2-methyl-N-(2-piperidin-4-ylethyl)benzamide;hydrochlo-ride]"
15,820,"COc1ccc(-c2cnc3c(Nc4ccc(C(=O)N[C@H](CO)Cc5cnc[nH]5)c(C)c4)nccn23)cc1F [Example 383, 4-[[3-(3-fluoro-4-methoxyphenyl)imidazo[1,2-a]pyrazin-8-yl]amino]-N-[(2S)-1-hydroxy-3-(1H-imidazol-5-yl)propan-2-yl]-2-methylbenzamide]"
16,450,"CCc1cc(Nc2nccn3c(-c4ccc(OC(F)F)c(F)c4F)cnc23)ccc1C(=O)NCC1(CO)COC(=O)N1 (centres unmarked) [Example 409, 4-((3-(4-(difluoromethoxy)-2,3-difluorophenyl)imidazo[1,2-a]pyrazin-8-yl)amino)-2-ethyl-N-((4-(hydroxymethyl)-2-oxooxazolidin-4-yl)methyl)benzamide]"
17,270,"COc1ccc(-c2cnc3c(Nc4ccc(C(=O)NCCCN5CCNCC5=O)c(C)c4)nccn23)c(F)c1F [Example 69, 4-((3-(2,3-difluoro-4-methoxyphenyl)imidazo [1,2-a]pyrazin-8-yl)amino)-2-methyl-N-(3-(2-oxopiperazin-1-yl)propyl)benzamide]"
